Assay: xn = mol fraction of the nth substance listed
Details: 101 kPa, Liquid; for speed of sound: Sing-around technique in a fixed-path interferometer; for viscosity: Capillary tube (Ostwald / Ubbelohde) method

NCCN [ethane-1,2-diamine] + CC(C)O
Details | mass density, 303.15 K [kg/m3] | mass density, 308.15 K [kg/m3] | mass density, 313.15 K [kg/m3] | speed of sound, 303.15 K [m/s] | speed of sound, 308.15 K [m/s] | speed of sound, 313.15 K [m/s] | viscosity, 308.15 K [mPa·s]
x1 = 0.0557 | 785.1 | 780.72 | 776.266 | – | 1134 | 1116.4 | 1.555
x1 = 0.1036 | 792.016 | 787.599 | 783.114 | – | 1160.1 | 1142.2 | 1.543
x1 = 0.156 | 799.108 | 794.649 | 790.129 | – | 1187.3 | 1169.4 | 1.528
x1 = 0.2011 | 805.044 | 800.552 | 796.005 | – | 1211.2 | 1193.2 | 1.516
x1 = 0.2548 | 811.904 | 807.374 | 802.798 | – | 1239.8 | 1221.6 | 1.497
x1 = 0.3018 | 817.496 | 812.943 | 808.346 | – | 1264.5 | 1246.1 | 1.48
x1 = 0.3892 | 827.475 | 822.898 | 818.281 | – | 1309.7 | 1291.2 | 1.44
x1 = 0.5109 | 840.354 | 835.76 | 831.131 | 1391.5 | 1372.1 | 1353.4 | 1.375
x1 = 0.605 | 849.588 | 844.983 | 840.349 | 1439 | 1419.1 | 1399.4 | 1.322
x1 = 0.6988 | 859.186 | 854.563 | 849.909 | 1489.5 | 1469.1 | 1449.1 | 1.266
x1 = 0.7969 | 869.028 | 864.38 | 859.706 | 1542.1 | 1521.1 | 1500.5 | 1.205
x1 = 0.8369 | 872.546 | 867.885 | 863.196 | 1562.4 | 1541.2 | 1520.3 | 1.183
x1 = 0.8931 | 877.945 | 873.264 | 868.56 | 1592.1 | 1570.6 | 1549.4 | 1.152
x1 = 0.9409 | 882.985 | 878.288 | 873.569 | 1618.7 | 1596.8 | 1575.4 | 1.129

From the NIST ThermoML archive (doi:10.1021/je1012857)
